# In ChEMBL document CHEMBL1128558, “Effect of bridge region variation on antifolate and antitumor activity of classical 5-substituted 2,4-diaminofuro[2,3-d]pyrimidines” (J Med Chem, 1995):
# B1: Folylpolyglutamate synthase, mitochondrial (Homo sapiens), Q05932 (protein)
# chain: MSRARSHLRAALFLAAASARGITTQVAARRGLSAWPVPQEPSMEYQDAVRMLNTLQTNAGYLEQVKRQRGDPQTQLEAMELYLARSGLQVEDLDRLNIIHVTGTKGKGSTCAFTECILRSYGLKTGFFSSPHLVQVRERIRINGQPISPELFTKYFWRLYHRLEETKDGSCVSMPPYFRFLTLMAFHVFLQEKVDLAVVEVGIGGAYDCTNIIRKPVVCGVSSLGIDHTSLLGDTVEKIAWQKGGIFKQGVPAFTVLQPEGPLAVLRDRAQQISCPLYLCPMLEALEEGGPPLTLGLEGEHQRSNAALALQLAHCWLQRQDRHGAGEPKASRPGLLWQLPLAPVFQPTSHMRLGLRNTEWPGRTQVLRRGPLTWYLDGAHTASSAQACVRWFRQALQGRERPSGGPEVRVLLFNATGDRDPAALLKLLQPCQFDYAVFCPNLTEVSSTGNADQQNFTVTLDQVLLRCLEHQQHWNHLDEEQASPDLWSAPSPEPGGSASLLLAPHPPHTCSASSLVFSCISHALQWISQGRDPIFQPPSPPKGLLTHPVAHSGASILREAAAIHVLVTGSLHLVGGVLKLLEPALSQ
# Assays:
# [1] = Ratio of Vmax to Km
# Thymidylate synthase [2] = target: T1, Thymidylate synthase (Lactobacillus casei, UniProt P00469); experiment: Inhibitory concentration against Lactobacillus casei TS (Thymidylate synthase).; design: species or system Lacticaseibacillus casei
# T1 sequence (P00469 whole entry): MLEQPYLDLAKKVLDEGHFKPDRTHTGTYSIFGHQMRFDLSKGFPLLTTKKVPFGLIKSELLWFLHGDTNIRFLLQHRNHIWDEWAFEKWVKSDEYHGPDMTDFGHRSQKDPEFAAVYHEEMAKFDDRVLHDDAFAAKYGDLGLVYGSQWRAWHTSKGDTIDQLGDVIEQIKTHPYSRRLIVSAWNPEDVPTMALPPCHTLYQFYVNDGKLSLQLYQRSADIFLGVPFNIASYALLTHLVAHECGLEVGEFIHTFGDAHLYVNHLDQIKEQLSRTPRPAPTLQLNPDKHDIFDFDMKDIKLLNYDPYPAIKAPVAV
# FaDu [3] = experiment: Protection by 50 uM Hx (Hypoxanthine) against the growth inhibition of FaDu cells induced by the compound; format: functional, Homo sapiens; design: scale not given: the % may be the effect or the level left
# FaDu [4] = experiment: Protection by 10 uM LV(leucovorin) against the growth inhibition of FaDu cells induced by the compound; format: functional, Homo sapiens; design: scale not given: the % may be the effect or the level left
# FaDu [5] = experiment: Protection by 40 uM TdR(thymidine) against the growth inhibition of FaDu cells induced by the compound; format: functional, Homo sapiens; design: scale not given: the % may be the effect or the level left
# CCRF-CEM [6] = experiment: Compound was tested for Growth inhibition of the Human T-lymphoblastic Leukemia cell line CCRF-CEM; format: functional, cell-based
# FaDu [7] = experiment: Protection by combination of 50 uM Hx (Hypoxanthine) + 40 uM TdR(thymidine) against the growth inhibition of FaDu cells induced by the compound; format: functional, Homo sapiens; design: scale not given: the % may be the effect or the level left
# A253 cell line = experiment: The compound was tested for Growth inhibition of the human squamous cell carcinoma A253 cells; format: functional, cell-based
# FaDu [8] = experiment: The compound was tested for growth inhibition against FaDu cells; format: functional, Homo sapiens; design: scale not given: the % may be the effect or the level left
# CCRF-CEM [9] = experiment: The compound was tested for Growth inhibition of Methotrexate-resistant human T-lymphoblastic leukemia cell line CCRF-CEM(sub line R30dm); format: functional, cell-based
# FaDu [10] = experiment: The compound was tested for Growth inhibition of the human squamous cell carcinoma FaDu cells; format: functional, cell-based
# Dihydrofolate reductase [11] = target: T2, Dihydrofolate reductase (Homo sapiens, UniProt P00374); experiment: Inhibitory concentration against recombinant human DHFR(Dihydro folate reductase).
# T2 sequence (P00374 whole entry): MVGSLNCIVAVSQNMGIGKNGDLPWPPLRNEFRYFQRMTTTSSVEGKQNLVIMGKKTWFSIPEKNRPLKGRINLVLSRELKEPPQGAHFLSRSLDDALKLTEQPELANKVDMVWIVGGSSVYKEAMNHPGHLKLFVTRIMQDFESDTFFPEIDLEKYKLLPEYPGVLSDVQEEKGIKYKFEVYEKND
# Thymidylate synthase [12] = target: Thymidylate synthase (Homo sapiens, UniProt P04818); experiment: Inhibitory concentration against recombinant human TS (Thymidylate synthase).
# Sequence of Thymidylate synthase (Homo sapiens, UniProt P04818) (P04818 whole entry): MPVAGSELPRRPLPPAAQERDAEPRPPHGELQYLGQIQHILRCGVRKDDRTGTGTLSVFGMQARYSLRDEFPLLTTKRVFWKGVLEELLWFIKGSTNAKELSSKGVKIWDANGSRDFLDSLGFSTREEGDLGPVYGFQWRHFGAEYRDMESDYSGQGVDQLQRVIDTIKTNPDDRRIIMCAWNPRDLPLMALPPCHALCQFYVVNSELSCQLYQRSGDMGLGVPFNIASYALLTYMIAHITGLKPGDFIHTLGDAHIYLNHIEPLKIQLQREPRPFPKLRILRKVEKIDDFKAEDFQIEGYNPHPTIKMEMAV
# Dihydrofolate reductase [13] = target: Dihydrofolate reductase (Lactobacillus casei, UniProt P00381)
# Sequence of Dihydrofolate reductase (Lactobacillus casei, UniProt P00381) (P00381 whole entry): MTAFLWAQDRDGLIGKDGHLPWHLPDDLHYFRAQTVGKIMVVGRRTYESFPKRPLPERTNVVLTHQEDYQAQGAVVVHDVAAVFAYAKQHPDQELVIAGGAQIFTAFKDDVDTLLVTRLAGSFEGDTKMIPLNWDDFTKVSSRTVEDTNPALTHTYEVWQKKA
# Description: inhibitory concentration against Lactobacillus casei DHFR(Dihydro folate reductase).
# CCRF-CEM [14] = experiment: he compound was tested for Growth inhibition of the Human T-lymphoblastic Leukemia cell line CCRF-CEM; format: functional, cell-based
# [15] = substrate: Nc1nc(N)c2c(CCc3ccc(C(=O)N[C@@H](CCC(=O)O)C(=O)O)cc3)coc2n1; experiment: (§1) Substrate activity against CCRF-CEM human leukemia cell Folyl-polyglutamate synthase
# [16] = substrate: Nc1nc(N)c2nc(CNc3ccc(C(=O)N[C@@H](CCC(=O)O)C(=O)O)cc3)cnc2n1; experiment: as §1
# [17] = substrate: Nc1nc(N)c2c(CNCc3ccc(C(=O)N[C@@H](CCC(=O)O)C(=O)O)cc3)coc2n1; experiment: (§2) Vmax value for substrate activity against CCRF-CEM human leukemia cell Folyl-polyglutamate synthase; format: cell-based
# [18] = substrate: Nc1nc(N)c2c(CCc3ccc(C(=O)N[C@@H](CCC(=O)O)C(=O)O)cc3)coc2n1; experiment: as §2; format: cell-based
# [19] = substrate: Nc1nc(N)c2nc(CNc3ccc(C(=O)N[C@@H](CCC(=O)O)C(=O)O)cc3)cnc2n1; experiment: as §2; format: cell-based
Molecule,Ratio [1],IC50 (Thymidylate synthase [2]),Control (FaDu [3]),Control (FaDu [4]),Control (FaDu [5]),EC50 (A253 cell line),Control (FaDu [8]),EC50 (FaDu [10]),IC50 (Dihydrofolate reductase [11]),IC50 (Dihydrofolate reductase [13]),also measured
Nc1nc(N)c2nc(CNc3ccc(C(=O)N[C@@H](CCC(=O)O)C(=O)O)cc3)cnc2n1,0.21,,,,,,,,,,
Nc1nc(N)c2c(CCc3ccc(C(=O)N[C@@H](CCC(=O)O)C(=O)O)cc3)coc2n1,0.07,200000 nM,4%,105%,14%,540 nM,7%,180 nM,,,EC50 (CCRF-CEM [6]): 290 nM; Control (FaDu [7]): 107%; EC50 (CCRF-CEM [9]): 4250 nM
CN(Cc1cnc2nc(N)nc(N)c2n1)c1ccc(C(=O)N[C@@H](CCC(=O)O)C(=O)O)cc1 [METHOTREXATE],,,6%,96%,8%,13 nM,2%,17 nM,,,
Nc1nc(N)c2c(CNc3ccc(C(=O)N[C@@H](CCC(=O)O)C(=O)O)cc3)coc2n1,,> 200000 nM,,,,,,,450 nM,560 nM,IC50 (Thymidylate synthase [12]): > 200000 nM
Nc1nc(N)c2c(CNCc3ccc(C(=O)N[C@@H](CCC(=O)O)C(=O)O)cc3)coc2n1,,> 200000 nM,,,,,,,> 200000 nM,> 200000 nM,EC50 (CCRF-CEM [14]): 48000 nM
B1,,,,,,,,,,,Km [15]: 8.5 µM; Km [16]: 4.8 µM; Vmax [17]: 0.6; Vmax [18]: 0.65; Vmax [19]: 1
